Source: BindingDB's records for doi:10.1016/j.bmc.2014.04.022 (Tohoku Pharmaceutical University, 2014)

What was measured:
[1] = Antagonist activity at estrogen receptor in human MCF7 cells assessed as inhibition of estradiol-induced cell proliferation after 5 days by WST-8 assay
[2] = Agonist activity at estrogen receptor in human MCF7 cells assessed as induction of cell proliferation after 5 days by WST-8 assay

`CN(C)CCOc1ccc(C23CC4CC(CC(c5ccc(O)cc5)(C4)C2)C3)cc1` gave an IC50 [1] of 1.06 µM and an EC50 [2] of 0.016 µM.
